Among the data in ChEMBL document CHEMBL1149344, “Discovery of aminoquinazolines as potent, orally bioavailable inhibitors of Lck: synthesis, SAR, and in vivo anti-inflammatory activity” (J Med Chem, 2006) are IC50, solubility and Activity values, retold here.

In brackets after ≈: the same amount, converted by molar mass. A value given as a limit tells only on which side of the number the result lay.

In series [1] the target is Mitogen-activated protein kinase 14 (Homo sapiens, UniProt Q16539). Put plainly: Inhibition of p38-alpha by HTRF kinase assay. (Time-resolved FRET reads energy transfer from a long-lived donor to a nearby acceptor.)
Series [2] concerns the target Tyrosine-protein kinase Lck (Homo sapiens, UniProt P06239).
Series [3] addresses T1, Tyrosine-protein kinase JAK3 (Homo sapiens, UniProt P52333).
T1 sequence (P52333 whole entry): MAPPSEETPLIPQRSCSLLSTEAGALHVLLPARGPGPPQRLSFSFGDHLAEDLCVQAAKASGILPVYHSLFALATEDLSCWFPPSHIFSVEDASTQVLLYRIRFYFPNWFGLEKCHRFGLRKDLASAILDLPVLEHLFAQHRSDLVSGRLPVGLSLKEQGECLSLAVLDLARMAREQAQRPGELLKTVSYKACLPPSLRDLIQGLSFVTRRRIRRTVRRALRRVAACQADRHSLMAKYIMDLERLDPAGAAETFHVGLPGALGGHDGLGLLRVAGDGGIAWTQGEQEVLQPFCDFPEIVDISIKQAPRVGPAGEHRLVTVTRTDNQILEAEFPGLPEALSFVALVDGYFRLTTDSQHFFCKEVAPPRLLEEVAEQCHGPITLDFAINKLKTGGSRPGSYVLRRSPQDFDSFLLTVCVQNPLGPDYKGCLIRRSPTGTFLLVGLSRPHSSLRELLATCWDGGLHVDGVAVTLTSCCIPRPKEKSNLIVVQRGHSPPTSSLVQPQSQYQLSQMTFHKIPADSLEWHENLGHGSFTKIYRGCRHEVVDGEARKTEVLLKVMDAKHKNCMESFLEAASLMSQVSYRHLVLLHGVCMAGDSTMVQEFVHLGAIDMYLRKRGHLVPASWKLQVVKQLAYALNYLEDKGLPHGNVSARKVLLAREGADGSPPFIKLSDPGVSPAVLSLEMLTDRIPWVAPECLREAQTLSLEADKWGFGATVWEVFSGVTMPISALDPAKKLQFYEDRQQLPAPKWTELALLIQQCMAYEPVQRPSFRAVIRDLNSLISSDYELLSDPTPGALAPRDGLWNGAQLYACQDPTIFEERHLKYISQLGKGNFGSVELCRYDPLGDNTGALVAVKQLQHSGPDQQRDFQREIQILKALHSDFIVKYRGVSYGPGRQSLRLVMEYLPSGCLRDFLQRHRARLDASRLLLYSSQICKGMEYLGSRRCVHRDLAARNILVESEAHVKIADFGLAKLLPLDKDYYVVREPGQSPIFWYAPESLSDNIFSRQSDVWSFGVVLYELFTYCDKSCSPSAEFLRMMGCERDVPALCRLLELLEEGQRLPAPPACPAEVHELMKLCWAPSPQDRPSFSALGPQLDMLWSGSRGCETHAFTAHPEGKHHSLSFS
Put plainly: Inhibition of Jak3 by HTRF kinase assay.

Series [4] concerns T-cell. Kind of series: Inhibition of human T cell proliferation by mixed lymphocyte reaction.
Series [5] deals with Vascular endothelial growth factor receptor 2 (Homo sapiens, UniProt P35968). Kind of series: Inhibition of KDR by HTRF kinase assay.
The nature of series [6]: Solubility in fasted state simulated intestinal fluid at pH 6.8. The series is classed as physicochemical.
Series [7] has as its system T-cell. Kind of series: Inhibition of anti CD3/CD28-induced IL2 secretion in human T cells. The series is classed as functional, cell-based.
A further series is filed under the species Homo sapiens. Put plainly: Inhibition of anti CD3-induced IL2 production in human whole blood. Format: functional.

Chain of Mitogen-activated protein kinase 14 (Q16539 whole entry): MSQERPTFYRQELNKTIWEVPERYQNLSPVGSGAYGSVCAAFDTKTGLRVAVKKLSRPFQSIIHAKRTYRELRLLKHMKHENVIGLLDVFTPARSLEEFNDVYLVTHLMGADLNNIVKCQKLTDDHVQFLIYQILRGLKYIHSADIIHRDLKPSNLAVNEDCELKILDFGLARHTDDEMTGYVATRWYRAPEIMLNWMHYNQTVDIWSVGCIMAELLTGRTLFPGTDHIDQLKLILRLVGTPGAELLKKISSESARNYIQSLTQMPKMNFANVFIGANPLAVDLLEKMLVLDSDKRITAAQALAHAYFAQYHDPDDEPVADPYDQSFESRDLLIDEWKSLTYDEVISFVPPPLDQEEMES
Chain of Vascular endothelial growth factor receptor 2 (P35968 whole entry): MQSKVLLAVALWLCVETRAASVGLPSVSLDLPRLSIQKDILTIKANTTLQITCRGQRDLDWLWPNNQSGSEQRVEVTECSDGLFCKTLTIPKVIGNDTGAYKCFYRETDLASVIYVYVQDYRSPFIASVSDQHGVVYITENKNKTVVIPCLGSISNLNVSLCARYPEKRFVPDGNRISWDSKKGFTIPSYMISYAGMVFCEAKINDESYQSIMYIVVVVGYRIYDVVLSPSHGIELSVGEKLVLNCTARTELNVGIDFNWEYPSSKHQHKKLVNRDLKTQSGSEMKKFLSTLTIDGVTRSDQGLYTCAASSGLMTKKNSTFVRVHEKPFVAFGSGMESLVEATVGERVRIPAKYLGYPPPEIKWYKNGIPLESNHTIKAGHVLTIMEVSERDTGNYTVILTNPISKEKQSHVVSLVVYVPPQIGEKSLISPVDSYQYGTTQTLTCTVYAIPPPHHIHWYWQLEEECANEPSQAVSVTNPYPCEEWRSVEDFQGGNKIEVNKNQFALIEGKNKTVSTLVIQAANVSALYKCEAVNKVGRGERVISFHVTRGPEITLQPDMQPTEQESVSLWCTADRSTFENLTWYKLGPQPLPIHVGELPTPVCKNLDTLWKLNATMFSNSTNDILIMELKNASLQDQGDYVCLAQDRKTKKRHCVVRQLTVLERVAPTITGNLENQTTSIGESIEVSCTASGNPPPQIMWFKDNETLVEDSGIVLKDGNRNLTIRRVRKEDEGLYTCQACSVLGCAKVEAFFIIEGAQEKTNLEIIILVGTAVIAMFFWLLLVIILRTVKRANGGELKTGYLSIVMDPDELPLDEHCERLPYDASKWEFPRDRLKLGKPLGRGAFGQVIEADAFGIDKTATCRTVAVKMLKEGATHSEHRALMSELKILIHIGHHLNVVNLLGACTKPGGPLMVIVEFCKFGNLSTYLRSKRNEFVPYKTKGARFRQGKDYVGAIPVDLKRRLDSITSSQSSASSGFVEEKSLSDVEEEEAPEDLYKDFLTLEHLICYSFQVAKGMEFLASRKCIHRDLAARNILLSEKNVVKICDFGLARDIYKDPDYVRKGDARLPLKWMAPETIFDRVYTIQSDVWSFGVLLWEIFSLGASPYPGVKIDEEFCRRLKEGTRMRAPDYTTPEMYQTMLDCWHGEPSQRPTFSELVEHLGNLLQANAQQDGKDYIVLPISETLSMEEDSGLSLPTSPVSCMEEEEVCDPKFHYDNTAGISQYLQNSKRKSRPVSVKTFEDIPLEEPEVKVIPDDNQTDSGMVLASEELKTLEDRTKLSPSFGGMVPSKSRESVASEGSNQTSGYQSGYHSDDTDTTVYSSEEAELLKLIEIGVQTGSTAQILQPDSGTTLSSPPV
Chain of Tyrosine-protein kinase Lck (P06239 whole entry): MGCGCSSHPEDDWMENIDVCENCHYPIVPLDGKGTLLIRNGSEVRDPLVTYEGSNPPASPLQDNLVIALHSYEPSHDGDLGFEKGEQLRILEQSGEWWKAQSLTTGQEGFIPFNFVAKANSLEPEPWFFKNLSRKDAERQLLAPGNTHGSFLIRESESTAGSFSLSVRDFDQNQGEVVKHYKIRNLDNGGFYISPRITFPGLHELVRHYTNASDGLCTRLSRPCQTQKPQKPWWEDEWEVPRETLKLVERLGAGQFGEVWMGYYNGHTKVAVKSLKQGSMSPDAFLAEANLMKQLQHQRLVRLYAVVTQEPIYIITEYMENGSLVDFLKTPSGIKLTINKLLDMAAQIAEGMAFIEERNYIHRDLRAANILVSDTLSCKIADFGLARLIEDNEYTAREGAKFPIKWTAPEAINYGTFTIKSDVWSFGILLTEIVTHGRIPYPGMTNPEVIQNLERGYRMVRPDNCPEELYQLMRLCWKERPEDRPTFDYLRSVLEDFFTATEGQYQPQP

For the compound `CNc1ncc2cc(-c3cc(C(=O)Nc4cccc5c4CCC5)ccc3C)ccc2n1`, the IC50 in series [1] turned out to be 21 nM; in series [2], 0.3 nM; in series [3] it was 1340 nM; with T-cell [4], 1660 nM; in series [5], 48 nM.
`Cc1ccc(C(=O)Nc2cccc(C(F)(F)F)c2C)cc1-c1ccc2nc(NC3CC3)ncc2c1`: the IC50 in series [1] amounted to 2 nM; in series [2], 0.07 nM; in series [3] it was 331 nM; in the series on T-cell [4], 73 nM; in the series with T-cell [7], 180 nM; in series [5], 6 nM. In series [6] (read-out: Solubility), the solubility was 13 µg/mL (≈ 27.3 µM).
`Cc1cc(F)c(C(=O)Nc2cccc(C(F)(F)F)c2)cc1-c1ccc2nc(N)ncc2c1` registered a half-maximal inhibitory concentration (IC50) in the series on T-cell [4] of 261 nM.
On to `Cc1ccc(C(=O)Nc2cccc(C(F)(F)F)c2C)cc1-c1ccc2nc(Nc3ccccc3)ncc2c1`, for which the IC50 in series [1] came to 57 nM; in series [2], 1 nM; in series [3] it was 46 nM; in the series with T-cell [4], 44 nM; in series [5] it was 4 nM.
On to `CNc1ncc2cc(-c3cc(C(=O)Nc4ccc(Cl)c(C(F)(F)F)c4)ccc3C)ccc2n1`, for which the concentration for half-maximal inhibition (IC50) in series [1] amounted to 14 nM; in series [2], 0.5 nM; in series [3], 16 nM; with T-cell [4] it was 133 nM; in the series with T-cell [7], 86 nM; in series [5], 3 nM.
In the series filed under Homo sapiens, `Cc1ccc(C(=O)Nc2cccc(C(F)(F)F)c2C)cc1-c1ccc2nc(NCCN3CCCC3)ncc2c1` displayed an Activity of 8.4 µM. Besides, the IC50 in series [1] was 7 nM; in series [2], 6 nM; in series [3], more than 8330 nM; in the series with T-cell [4] it was 246 nM; in the series on T-cell [7], 461 nM; in series [5] it was 246 nM. Further, the solubility in series [6] (read-out: Solubility) was 172 µg/mL (≈ 322 µM).
For `Cc1ccc(C(=O)Nc2cccc(C(F)(F)F)c2C)cc1-c1ccc2nc(NCCCN3CCOCC3)ncc2c1`, the IC50 stood at 25 nM in series [1]; 0.4 nM in series [2]; 2190 nM in series [3]; 5 nM in the series with T-cell [4]; 66 nM with T-cell [7]; 7 nM in series [5]. The solubility in series [6] (read-out: Solubility) was 182 µg/mL (≈ 323 µM).
In the case of `CNc1ncc2cc(-c3cc(NC(=O)c4cccc(C(F)(F)F)c4)ccc3C)ccc2n1`, the concentration for half-maximal inhibition (IC50) in series [1] turned out to be 0.9 nM; in series [2], 0.3 nM; in series [3], 154 nM; with T-cell [4], 167 nM; in series [5] it was 5 nM.
Turning to `Cc1ccc(C(=O)Nc2cccc(C(F)(F)F)c2C)cc1-c1ccc2nc(NCCN3CCOCC3)ncc2c1`, the IC50 amounted to 40 nM in series [1]; 3 nM in series [2]; 626 nM in series [3]; 357 nM in the series on T-cell [4]; 15 nM in series [5]. Also, the solubility in series [6] (read-out: Solubility) is 175 µg/mL (≈ 318 µM).
Take `CNc1ncc2cc(-c3cc(C(=O)Nc4cc(C(F)(F)F)ccc4N4CCCCC4)ccc3C)ccc2n1`: the concentration for half-maximal inhibition (IC50) was determined as 168 nM in series [1]; 48 nM in series [2]; 253 nM in series [3]; 639 nM with T-cell [4]; 1410 nM in series [5].
On to `CNc1ncc2cc(-c3cc(C(=O)Nc4cc(C(F)(F)F)ccc4N4CC(C)(C)C4=O)ccc3C)ccc2n1`, for which the Activity in the series listed under Homo sapiens turned out to be 2.31 µM. Moreover, the 50% inhibitory concentration (IC50) stood at 172 nM in series [1]; 2 nM in series [2]; 193 nM in series [3]; 17 nM in the series on T-cell [4]; 89 nM in the series on T-cell [7]; 360 nM in series [5].
Consider `CNc1ncc2cc(-c3cc(C(=O)Nc4cccc(C(F)(F)F)c4)c(F)cc3C)ccc2n1`, for which the IC50 with T-cell [4] worked out at 254 nM.
For `CNc1ncc2cc(-c3cc(Nc4nc5ccc(C(F)(F)F)cc5[nH]4)ccc3C)ccc2n1`, the IC50 in series [1] is 277 nM; in series [2], 297 nM; in series [3] it was more than 25000 nM; in series [5] it was 1440 nM.
For the compound `CNc1ncc2cc(-c3cc(NC(=O)Nc4cccc(C(F)(F)F)c4)ccc3C)ccc2n1`, the IC50 in series [1] came to 5 nM; in series [2], 8 nM; in series [3] it was 1140 nM; with T-cell [4], 280 nM; in series [5] it was 52 nM.
With `CNc1ncc2cc(-c3cc(C(=O)Nc4ccc(Cl)c(C(F)(F)F)c4C)ccc3C)ccc2n1`, the IC50 stood at 139 nM in series [1]; 3 nM in series [2]; 106 nM in series [3]; 1700 nM in the series with T-cell [4]; 21 nM in series [5].
As for `Cc1ccccc1-c1ccc2nc(N)ncc2c1`, the IC50 in series [1] stood at 3900 nM; in series [2] it was 94 nM; in series [3], 9820 nM; in series [5], 4970 nM.
As to `Nc1ncc2cc(-c3ccc(F)c(C(=O)Nc4cccc(C(F)(F)F)c4)c3)ccc2n1`, the half-maximal inhibitory concentration (IC50) with T-cell [4] is more than 20000 nM.
Still for that read-out and setting: to `CNc1ncc2cc(-c3cccc(C(=O)Nc4cccc(C(F)(F)F)c4)c3)ccc2n1` belongs 550 nM.
Take `CNc1ncc2cc(-c3cc(C(=O)Nc4cc(C(F)(F)F)ccc4N4CCN(C)C4=O)ccc3C)ccc2n1`: the concentration for half-maximal inhibition (IC50) in series [1] is 4 nM; in series [2] it was 2 nM; in series [3], 987 nM; in the series on T-cell [4] it was 499 nM; in series [5], 461 nM.
With `CNc1ncc2cc(-c3cc(C(=O)Nc4ccc(OC5CCN(C)CC5)cc4)ccc3C)ccc2n1`, the half-inhibitory concentration (IC50) was 93 nM in series [1]; 1 nM in series [2]; more than 8330 nM in series [3]; 230 nM in the series on T-cell [4]; 223 nM in the series on T-cell [7]; 8 nM in series [5].
Take `CNc1ncc2cc(-c3cc(C(=O)Nc4cccc(C(F)(F)F)c4C)ccc3C)ccc2n1`: the IC50 in series [1] worked out at 50 nM; in series [2] it was 0.01 nM; in series [3], 133 nM; with T-cell [4], 176 nM; with T-cell [7], 160 nM; in series [5], 8 nM. The solubility in series [6] was 19 µg/mL (≈ 42.2 µM).
The compound `Nc1ncc2cc(-c3cccc(C(=O)Nc4cccc(C(F)(F)F)c4)c3)ccc2n1` displayed an IC50 with T-cell [4] of 2480 nM.
For `CNc1ncc2cc(-c3cc(C(=O)Nc4cc(C(F)(F)F)ccc4NC(=O)NCCN4CCOCC4)ccc3C)ccc2n1`, the IC50 worked out at 31 nM in series [1]; 0.4 nM in series [2]; 722 nM in series [3]; 52 nM in the series on T-cell [4]; 47 nM in series [5].
As for `Cc1ccc(C(=O)Nc2cccc(C(F)(F)F)c2C)cc1-c1ccc2nc(NCCN3CCCCC3)ncc2c1`, the concentration for half-maximal inhibition (IC50) in series [1] was 9 nM; in series [2] it was 6 nM; in series [3], more than 25000 nM; in the series with T-cell [4] it was 667 nM; in series [5], 173 nM. In series [6] (read-out: Solubility), the solubility was more than 200 µg/mL.
For the compound `Cc1ccc(C(=O)Nc2cccc(C(F)(F)F)c2C)cc1-c1ccc2nc(N(C)CCCN3CCOCC3)ncc2c1`, the IC50 in series [1] was 65 nM; in series [2], 14 nM; in series [3], more than 25000 nM; in the series with T-cell [4], 844 nM; in series [5], 292 nM. The solubility in series [6] (read-out: Solubility) was more than 200 µg/mL.
In the case of `Nc1ncc2cc(-c3cc(C(=O)Nc4cccc(C(F)(F)F)c4)ccc3Cl)ccc2n1`, in the series with T-cell [4], inhibition was half-maximal at 22 nM (IC50).
Consider `CCN(CC)CC(=O)Nc1ccc(C(F)(F)F)cc1NC(=O)c1ccc(C)c(-c2ccc3nc(NC)ncc3c2)c1`, for which the IC50 in series [1] is 76 nM; in series [3] it was more than 8330 nM; in the series with T-cell [4], 427 nM; in series [5], 306 nM.

By IC50 is commonly meant the concentration that inhibits the measured activity by half. A higher IC50 goes with lower potency. The term solubility denotes the concentration that dissolves in the medium under given conditions.
